IC50 and EC50 data for 26 compounds are collected here from patent US20240043427A1 (Gilead Sciences, Inc., priority 2020, published 2024).

Test [1] deals with T1, CD73 (Homo sapiens (Human), UniProt P21589). It counts as biochemical. To be noted: 1 mM NaH2PO4 in enzyme buffer, CD73 0.3 nM, AMP 15 uM.
Test [2] concerns the target T1, CD73. The test is described as follows: MDA-MB-231 Cell Based CD73 Activity Assay (DMEM). To be noted: MDA-MB-231-GFP cells, DMEM medium with 10% human plasma, 200 uM AMP.

T1 sequence (P21589 27-574): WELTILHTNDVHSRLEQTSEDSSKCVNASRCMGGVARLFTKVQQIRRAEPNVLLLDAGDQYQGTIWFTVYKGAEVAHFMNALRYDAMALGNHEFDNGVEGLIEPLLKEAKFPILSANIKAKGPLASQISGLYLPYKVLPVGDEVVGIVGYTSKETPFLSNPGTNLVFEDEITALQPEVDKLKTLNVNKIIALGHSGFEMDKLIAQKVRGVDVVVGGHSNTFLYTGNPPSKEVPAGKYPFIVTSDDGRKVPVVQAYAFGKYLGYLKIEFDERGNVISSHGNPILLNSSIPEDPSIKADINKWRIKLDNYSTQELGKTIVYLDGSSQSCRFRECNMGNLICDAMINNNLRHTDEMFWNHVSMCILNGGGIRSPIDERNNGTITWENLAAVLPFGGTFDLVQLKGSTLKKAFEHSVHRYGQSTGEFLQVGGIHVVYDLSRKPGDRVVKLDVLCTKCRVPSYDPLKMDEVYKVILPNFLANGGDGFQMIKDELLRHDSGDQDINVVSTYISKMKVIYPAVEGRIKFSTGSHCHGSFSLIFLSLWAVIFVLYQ

With `O=C1N(CC(F)(F)F)c2cc([C@H]3C[C@@H]3c3cc(-c4c[nH]c(=O)[nH]c4=O)nn4c(F)cnc34)ccc2C12CCCC2` [Example 385, 5-(3-fluoro-8-((1S,2S)-2-(2′-oxo-1′-(2,2,2-trifluoroethyl)spiro[cyclopentane-1,3′-indolin]-6′-yl)cyclopropyl)imidazo[1,2-b]pyridazin-6-yl)pyrimidine-2,4(1H,3H)-dione], the IC50 against CD73 [1] was 0.00068 µM. Besides, the EC50 on CD73 [2] came out at 0.00025 µM.
For `O=c1[nH]cc(-c2cc(N3CC4(C3)CC4(F)F)c3nccn3n2)c(=O)[nH]1` [Example 406, 5-(8-(1,1-difluoro-5-azaspiro[2.3]hexan-5-yl)imidazo[1,2-b]pyridazin-6-yl)pyrimidine-2,4(1H,3H)-dione] the same measures were 0.0256 µM and 0.0982 µM.
For `O=c1[nH]cc(-c2cc(N3CC(F)(F)C4(CN(CC(F)(F)F)C4)C3)c3nccn3n2)c(=O)[nH]1` [Example 508, 5-(8-(8,8-difluoro-2-(2,2,2-trifluoroethyl)-2,6-diazaspiro[3.4]octan-6-yl)imidazo[1,2-b]pyridazin-6-yl)pyrimidine-2,4(1H,3H)-dione] the same measures were 0.015 µM and 0.029 µM.
In the case of `O=c1[nH]cc(-c2cc(N3CC4(CC(C(F)F)C4)C3)c3nccn3n2)c(=O)[nH]1` [Example 448, 5-(8-(6-(difluoromethyl)-2-azaspiro[3.3]heptan-2-yl)imidazo[1,2-b]pyridazin-6-yl)pyrimidine-2,4(1H,3H)-dione], at CD73 [1], the IC50 came out at 0.194 µM. Moreover, the EC50 on CD73 [2] is 1.36 µM.
Take `O=C(OCC(F)(F)F)O[C@H]1CN(c2cc(-c3c[nH]c(=O)[nH]c3=O)nn3ccnc23)CC1(F)F` [Example 541, (S)-1-(6-(2,4-dioxo-1,2,3,4-tetrahydropyrimidin-5-yl)imidazo[1,2-b]pyridazin-8-yl)-4,4-difluoropyrrolidin-3-yl (2,2,2-trifluoroethyl) carbonate]: the IC50 on CD73 [1] came out at 0.00055 µM. The same compound had an EC50 at CD73 [2] of 0.0363 µM.
For the compound `O=C(NC12CC(C1)C2)O[C@H]1CN(c2cc(-c3c[nH]c(=O)[nH]c3=O)nn3ccnc23)CC1(F)F` [Example 551, (S)-1-(6-(2,4-dioxo-1,2,3,4-tetrahydropyrimidin-5-yl)imidazo[1,2-b]pyridazin-8-yl)-4,4-difluoropyrrolidin-3-yl bicyclo[1.1.1]pentan-1-ylcarbamate], the IC50 at CD73 [1] came out at 0.00024 µM. For the same compound, at CD73 [2], it took 0.00013 µM to reach a half-maximal effect (EC50).
For `O=c1[nH]cc(-c2cc([C@H]3C[C@@H]3c3ccc4nc5n(c4c3)[C@H](C(F)(F)F)CC5)c3nccn3n2)c(=O)[nH]1` [Example 639, 5-(8-((1S,2S)-2-((S)-1-(trifluoromethyl)-2,3-dihydro-1H-benzo[d]pyrrolo[1,2-a]imidazol-7-yl)cyclopropyl)imidazo[1,2-b]pyridazin-6-yl)pyrimidine-2,4(1H,3H)-dione] the same measures were 0.00242 µM and 0.00058 µM.
Taken in the same sequence, the figures for `CC(C)(O)C#Cc1cc(-c2c[nH]c(=O)[nH]c2=O)nn2ccnc12` [Example 685, 5-(8-(3-hydroxy-3-methylbut-1-yn-1-yl)imidazo[1,2-b]pyridazin-6-yl)pyrimidine-2,4(1H,3H)-dione] were more than 0.25 µM and 0.551 µM.
Taken in the same sequence, the figures for `O=C1CN(c2cc(-c3c[nH]c(=O)[nH]c3=O)nn3ccnc23)CCN1Cc1ccc(F)cc1` [Example 482, 5-(8-(4-(4-fluorobenzyl)-3-oxopiperazin-1-yl)imidazo[1,2-b]pyridazin-6-yl)pyrimidine-2,4(1H,3H)-dione] were more than 0.25 µM and 1.23 µM.
`CC1(O)CCN(c2cc(-c3c[nH]c(=O)[nH]c3=O)nn3ccnc23)C1` (stereo not shown) [Example 243, 5-(8-(3-hydroxy-3-methylpyrrolidin-1-yl)imidazo[1,2-b]pyridazin-6-yl)pyrimidine-2,4(1H,3H)-dione] showed an IC50 against CD73 [1] of 0.0222 µM. The same compound registered an EC50 on CD73 [2] of 0.0561 µM.
Take `O=C(NCC(F)(F)F)OC1CN(c2cc(-c3c[nH]c(=O)[nH]c3=O)nn3ccnc23)CC1(F)F` (stereo not shown) [Example 535, 1-(6-(2,4-dioxo-1,2,3,4-tetrahydropyrimidin-5-yl)imidazo[1,2-b]pyridazin-8-yl)-4,4-difluoropyrrolidin-3-yl (2,2,2-trifluoroethyl)carbamate]: the IC50 at CD73 [1] stood at 0.00163 µM. The same compound yielded an EC50 at CD73 [2] of 0.00071 µM.
Regarding `COC(=O)c1ccc(C2CN(c3cc(-c4c[nH]c(=O)[nH]c4=O)nn4ccnc34)C2)cc1` [Example 261, Methyl 4-(1-(6-(2,4-dioxo-1,2,3,4-tetrahydropyrimidin-5-yl)imidazo[1,2-b]pyridazin-8-yl)azetidin-3-yl)benzoate], the IC50 against CD73 [1] was 0.0139 µM. The EC50 at CD73 [2] amounted to 0.139 µM.
`O=c1[nH]cc(-c2cc(N3CC(F)(C(F)(F)F)C3)c3nccn3n2)c(=O)[nH]1` [Example 397, 5-(8-(3-fluoro-3-(trifluoromethyl)azetidin-1-yl)imidazo[1,2-b]pyridazin-6-yl)pyrimidine-2,4(1H,3H)-dione]: the IC50 at CD73 [1] came out at 0.0153 µM. Moreover, at CD73 [2], the EC50 is 0.0225 µM.
For `O=c1[nH]cc(-c2cc([C@@H]3C[C@H]3c3cc(F)c(F)c(F)c3)c3nccn3n2)c(=O)[nH]1` (racemic) [Example 36] the same measures were 0.00272 µM and 0.00253 µM.
Compound `O=c1[nH]cc(-c2cc([C@H]3C[C@@H]3c3ccc4c(cnn4CC(F)(F)F)c3)c3ncnn3n2)c(=O)[nH]1` [Example 430, 5-(8-((1S,2S)-2-(1-(2,2,2-trifluoroethyl)-1H-indazol-5-yl)cyclopropyl)-[1,2,4]triazolo[1,5-b]pyridazin-6-yl)pyrimidine-2,4(1H,3H)-dione] came in with an IC50 against CD73 [1] of 0.00018 µM. This compound also gave an EC50 on CD73 [2] of 0.00071 µM.
As for `N#Cc1ccc([C@H]2C[C@@H]2c2cc(-c3c[nH]c(=O)[nH]c3=O)nn3ccnc23)c(F)c1F` [Example 558, 4-((1S,2S)-2-(6-(2,4-dioxo-1,2,3,4-tetrahydropyrimidin-5-yl)imidazo[1,2-b]pyridazin-8-yl)cyclopropyl)-2,3-difluorobenzonitrile], on CD73 [1], half-maximal inhibition (IC50) required 0.00287 µM. Further, at CD73 [2], a half-maximal effect (EC50) was put at 0.0204 µM.
For `O=c1[nH]cc(-c2cc([C@H]3C[C@@H]3c3cc(-c4ccc(F)cc4F)ccn3)c3nccn3n2)c(=O)[nH]1` (racemic) [Example 623, 5-(8-((1S,2S)-2-(4-(2,4-difluorophenyl)pyridin-2-yl)cyclopropyl)imidazo[1,2-b]pyridazin-6-yl)pyrimidine-2,4(1H,3H)-dione] the same measures were 0.00227 µM and 0.022 µM.
Regarding `O=c1[nH]cc(-c2cc([C@H]3C[C@@H]3c3ccc(OCC(F)(F)F)cc3)c3nccn3n2)c(=O)[nH]1` (racemic) [Example 564, 5-(8-((1S,2S)-2-(4-(2,2,2-trifluoroethoxy)phenyl)cyclopropyl)imidazo[1,2-b]pyridazin-6-yl)pyrimidine-2,4(1H,3H)-dione], the IC50 against CD73 [1] is 0.00253 µM. This compound came in with an EC50 at CD73 [2] of 0.0313 µM.
For the compound `O=c1[nH]cc(-c2cc(N3CCC(F)(c4ccc(F)cc4)C3)c3nccn3n2)c(=O)[nH]1` (stereo not shown) [Example 255, 5-(8-(3-fluoro-3-(4-fluorophenyl)pyrrolidin-1-yl)imidazo[1,2-b]pyridazin-6-yl)pyrimidine-2,4(1H,3H)-dione], the IC50 at CD73 [1] was 0.0175 µM. In addition, the EC50 at CD73 [2] amounted to 0.113 µM.
At CD73 [1], `O=c1[nH]cc(-c2cc([C@H]3C[C@@H]3c3ccc4cnn(CC(F)(F)F)c4c3)n3nccc3n2)c(=O)[nH]1` [Example 456, 5-(7-((1S,2S)-2-(1-(2,2,2-trifluoroethyl)-1H-indazol-6-yl)cyclopropyl)pyrazolo[1,5-a]pyrimidin-5-yl)pyrimidine-2,4(1H,3H)-dione] had an IC50 of 0.00053 µM. The EC50 at CD73 [2] is 0.00015 µM.
For `COc1ccc(C2CN(c3cc(-c4c[nH]c(=O)[nH]c4=O)nn4ccnc34)C2)cc1` [Example 251, 5-(8-(3-(4-methoxyphenyl)azetidin-1-yl)imidazo[1,2-b]pyridazin-6-yl)pyrimidine-2,4(1H,3H)-dione] the same measures were 0.0176 µM and 0.125 µM.
For `CC1(C(F)(F)F)CCN(c2cc(-c3c[nH]c(=O)[nH]c3=O)nn3ccnc23)C1` (stereo not shown) [Example 185, 5-[8-[3-methyl-3-(trifluoromethyl)pyrrolidin-1-yl]imidazo[1,2-b]pyridazin-6-yl]-1H-pyrimidine-2,4-dione] the same measures were 0.0135 µM and 0.0574 µM.
`O=c1[nH]cc(-c2cc([C@H]3C[C@@H]3c3ccc4ccn(CC(F)(F)F)c4n3)c3nccn3n2)c(=O)[nH]1` [Example 126, 5-(8-((1S,2S)-2-(1-(2,2,2-trifluoroethyl)-1H-pyrrolo[2,3-b]pyridin-6-yl)cyclopropyl)imidazo[1,2-b]pyridazin-6-yl)pyrimidine-2,4(1H,3H)-dione] displayed an IC50 against CD73 [1] of 0.00113 µM. At CD73 [2], this compound had an EC50 of 0.00046 µM.
For `CC1(C)CN(c2cc(-c3c[nH]c(=O)[nH]c3=O)nn3cc(C4(C(F)(F)F)CC4)nc23)CC1(F)F` [Example 441, 5-(8-(3,3-difluoro-4,4-dimethylpyrrolidin-1-yl)-2-(1-(trifluoromethyl)cyclopropyl)imidazo[1,2-b]pyridazin-6-yl)pyrimidine-2,4(1H,3H)-dione] the same measures were 0.0463 µM and 0.239 µM.
For `O=C1N(CCC(F)(F)F)c2cc([C@H]3C[C@@H]3c3cc(-c4c[nH]c(=O)[nH]c4=O)nn4ccnc34)ccc2C12CC2` (racemic) [Example 746, 5-(8-((1S,2S)-2-(2′-oxo-1′-(3,3,3-trifluoropropyl)spiro[cyclopropane-1,3′-indolin]-6′-yl)cyclopropyl)imidazo[1,2-b]pyridazin-6-yl)pyrimidine-2,4(1H,3H)-dione] the same measures were 0.00237 µM and 0.00084 µM.
Consider `CC1CN(c2cc(-c3c[nH]c(=O)[nH]c3=O)nc3ccnn23)CC1(F)F` (stereo not shown) [Example 221, 5-(7-(3,3-difluoro-4-methylpyrrolidin-1-yl)pyrazolo[1,5-a]pyrimidin-5-yl)pyrimidine-2,4(1H,3H)-dione], for which the midpoint of inhibition against CD73 [1], the IC50, lay at 0.0131 µM. The compound further showed a half-maximal effective concentration (EC50) on CD73 [2] of 0.0749 µM.

As usually defined, the IC50 is the concentration at which inhibition is half-maximal. High values mean lower potency, low ones higher potency. What is called EC50 is the midpoint of the concentration-response curve. Read a low EC50 as a more potent agent.
